Source: article PMC4911353, “Pharmacologic Inhibition of Host Phosphodiesterase-4 Improves Isoniazid-Mediated Clearance of Mycobacterium tuberculosis” (Frontiers in Immunology, 2016)

Tested on: Mycobacterium tuberculosis CDC1551
Format: in vivo
Conditions: in vivo, 50 mg/kg

CCOc1cc([C@@H](CS(C)(=O)=O)N2Cc3cccc(NC(=O)C4CC4)c3C2=O)ccc1OC [CC-11050, N-[2-[(1S)-1-(3-ethoxy-4-methoxyphenyl)-2-(methylsulfonyl)ethyl]-2,3-dihydro-3-oxo-1H-isoindol-4-yl]-(9Cl) cyclopropanecarboxamide]
Difference in number of lung CFUs versus untreated mice: No significant difference | Lung bacillary load (po): about 5.5 log10
